Measured values published in US5616604A, “Aminopyrrolizinone analogues for anti-inflammation and analgesia (II)” (priority 1996, dated 1997).

Legend:
[1] = test system: mouse writhing induced by acetic acid; experiment: inhibition of acetic acid-induced writhe in mice; assay type: in vivo; settings: oral, female mice, dose/LD50: SFZ-47 1/15, SFZ-58 1/10, ibuprofen 1/5, indomethacin 1/4; for Numb. of writhing (x ± SD): 0.7% acetic acid i.p. 1 h later, 20 min observation, N.S. 17.0 ± 6.8; for Rate of inhibition (%): writhing vs normal saline
Experimental: The influence of SFZ-47, 58 on inhibition of acetic acid-induces writhe.
SFZ-47 and SFZ-58 were suspended in 0.5% carboxymethylcellulose (CMC) and administered per os. to female mice of weight 18-24 g. 1 hour later, 0.2 ml of a 0.7% solution of acetic acid was injected to mouse by intraperironeally. The animals were observed during the next 20 min. for writhe.

[2] = test system: carrageenin-induced paw edema; experiment: inhibition of carrageenin-induced paw edema in rat; assay type: in vivo; settings: oral, male rats, dose/LD50: SFZ-47 1/15, SFZ-58 1/10, ibuprofen 1/5, indomethacin 1/4; for carrageenin-induced paw edema, 1 hour: N.S. 0.40 ± 0.00; for carrageenin-induced paw edema, 2 hours: N.S. 0.78 ± 0.09; for carrageenin-induced paw edema, 3 hours: N.S. 0.75 ± 0.09; for carrageenin-induced paw edema, 4 hours: N.S. 0.75 ± 0.05; for carrageenin-induced paw edema, 5 hours: N.S. 0.76 ± 0.09
Experimental: The influence of SFZ-47, 58 on inhibition of Carrageenin-Induced Paw Edema in Rat.
The test agent was administered by oral liquid to male rats of weight 140-180 g. 0.05 ml of 1% carrageenin injected into the pad of the right hind paw 1 hour later. The perimeter of the rat ankles were measured each hour after compound administration.

gastric mucosa of rats = experiment: effects on gastric mucosa of rats (ulcer index); assay type: in vivo, rat; settings: n = 5, SFZ-47 400 mg/kg, SFZ-58 300 mg/kg, ibuprofen 200 mg/kg, indomethacin 10 mg/kg
Description: Effects of SFZ-47 and SFZ-58 on gastric mucosa of rats

cerebral circulation = settings: prior art, cited from earlier work
splanchnic vascular bed = settings: prior art, in words; cited from earlier work

| Compound | Numb. of writhing (x ± SD) [1] | Rate of inhibition (%) [1] | carrageenin-induced paw edema, 1 hour [2] | carrageenin-induced paw edema, 2 hours [2] | carrageenin-induced paw edema, 3 hours [2] | carrageenin-induced paw edema, 4 hours [2] | carrageenin-induced paw edema, 5 hours [2] | Ulcer index (gastric mucosa of rats) | cerebral blood flow response to hypercapnia (cerebral circulation; in words) | decrease of cerebral blood flow (cerebral circulation) | blood flow in the splanchnic vascular bed (splanchnic vascular bed) |
| --- | --- | --- | --- | --- | --- | --- | --- | --- | --- | --- | --- |
| CC(C)Cc1ccc(C(C)C(=O)O)cc1 (stereo not shown) [Ibuprofen] | 4.3 ± 3.9 | 75% | 0.29 ± 0.06 | 0.41 ± 0.11 | 0.52 ± 0.00 | 0.51 ± 0.00 | 0.47 ± 0.10 | 13.3 ± 4.2 mm^2 |  |  |  |
| COc1ccc2c(c1)c(CC(=O)O)c(C)n2C(=O)c1ccc(Cl)cc1 [Indomethacin] | 2.7 ± 1.5 | 84% | 0.21 ± 0.18 | 0.33 ± 0.08 | 0.45 ± 0.08 | 0.43 ± 0.13 | 0.43 ± 0.13 | 14.0 ± 6.9 mm^2 | abolishing cerebral blood flow response to hypercapnia | 25-35% | diminishes blood flow in the splanchnic vascular bed |
